Source: PMC6554660 (Frontiers in Pharmacology, 2019)
Entries after “also recorded” stand apart in the source; their conditions may differ. Where a SMILES comes first, the peptide text is derived from it. Bridges are numbered along the chain shown (N, C = ends).

Legend:
[1] = in vivo; cited from earlier work
rat α3β2 nAChR = rat α3β2 nAChR (Rattus norvegicus, UniProt P04757+P12390); test: cell-based
rat α7 nAChR = rat α7 nAChR (Rattus norvegicus, UniProt Q05941); test: cell-based; type: cell-based
rat α7 nAChR, sequence (Q05941 23-502 limits assumed): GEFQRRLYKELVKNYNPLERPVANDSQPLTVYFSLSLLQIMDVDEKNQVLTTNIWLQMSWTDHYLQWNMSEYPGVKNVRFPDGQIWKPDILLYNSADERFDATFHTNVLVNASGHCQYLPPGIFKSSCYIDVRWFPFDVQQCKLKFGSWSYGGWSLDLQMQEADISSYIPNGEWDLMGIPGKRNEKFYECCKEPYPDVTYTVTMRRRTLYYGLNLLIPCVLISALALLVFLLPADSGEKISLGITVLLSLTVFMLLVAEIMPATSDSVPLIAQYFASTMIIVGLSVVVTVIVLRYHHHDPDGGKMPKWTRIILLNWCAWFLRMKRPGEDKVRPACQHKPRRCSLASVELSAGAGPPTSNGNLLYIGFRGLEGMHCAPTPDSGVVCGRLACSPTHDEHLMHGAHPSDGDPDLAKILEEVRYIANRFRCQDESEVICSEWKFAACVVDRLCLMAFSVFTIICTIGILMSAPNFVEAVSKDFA

rat α3β2 nAChR, sequence (P04757 26-499 limits assumed): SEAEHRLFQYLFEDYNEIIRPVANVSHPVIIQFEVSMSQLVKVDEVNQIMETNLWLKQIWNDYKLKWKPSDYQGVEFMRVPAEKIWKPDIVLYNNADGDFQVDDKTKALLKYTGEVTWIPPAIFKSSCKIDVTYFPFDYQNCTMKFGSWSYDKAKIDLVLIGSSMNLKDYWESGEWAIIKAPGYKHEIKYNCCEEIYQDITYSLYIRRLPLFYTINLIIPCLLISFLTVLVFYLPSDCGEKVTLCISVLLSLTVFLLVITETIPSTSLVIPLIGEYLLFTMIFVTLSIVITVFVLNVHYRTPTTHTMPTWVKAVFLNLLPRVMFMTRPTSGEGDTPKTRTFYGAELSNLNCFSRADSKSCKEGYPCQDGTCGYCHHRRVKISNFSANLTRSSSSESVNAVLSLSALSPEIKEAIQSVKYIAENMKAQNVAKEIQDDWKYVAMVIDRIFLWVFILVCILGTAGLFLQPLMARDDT
rat α3β2 nAChR, sequence (P12390 25-500 limits assumed): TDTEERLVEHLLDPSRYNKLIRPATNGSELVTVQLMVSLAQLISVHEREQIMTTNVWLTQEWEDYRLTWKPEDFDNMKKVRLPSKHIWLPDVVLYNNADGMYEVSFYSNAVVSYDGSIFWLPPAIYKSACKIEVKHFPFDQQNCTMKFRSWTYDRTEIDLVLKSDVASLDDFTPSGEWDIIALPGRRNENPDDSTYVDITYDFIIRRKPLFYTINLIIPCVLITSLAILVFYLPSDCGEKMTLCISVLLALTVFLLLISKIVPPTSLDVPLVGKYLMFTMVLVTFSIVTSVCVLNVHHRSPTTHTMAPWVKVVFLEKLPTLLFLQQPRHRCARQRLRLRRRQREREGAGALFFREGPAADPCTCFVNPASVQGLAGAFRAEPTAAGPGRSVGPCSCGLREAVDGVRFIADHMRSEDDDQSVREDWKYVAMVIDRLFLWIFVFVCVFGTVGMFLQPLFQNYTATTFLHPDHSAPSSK

Compound | analgesic properties [1] | IC50 (rat α3β2 nAChR) [nM] | IC50 (rat α7 nAChR) [nM] | nH (Hill coefficient) (rat α3β2 nAChR) | activity at α7 nAChR (in words) (rat α7 nAChR) | nH (Hill coefficient) (rat α7 nAChR)
Vc1.1 | potent analgesic properties |  |  |  |  | 
CC[C@H](C)[C@@H]1NC(=O)[C@@H]2CSSC[C@H](NC(=O)CN)C(=O)N[C@@H](CSSC[C@@H](C(N)=O)NC(=O)[C@H](CC(C)C)NC(=O)[C@H](CC(=O)O)NC(=O)[C@@H]3CCCN3C(=O)[C@H](CC(N)=O)NC(=O)[C@H](CC(N)=O)NC(=O)[C@H](C)NC1=O)C(=O)N[C@@H](CO)C(=O)N[C@@H](CCCNC(=N)N)C(=O)N1CCC[C@H]1C(=O)N1CCC[C@H]1C(=O)N2 [Synthetic TxIA, reference compound] |  | 4.6 | 1810 |  |  | 
CC[C@H](C)[C@@H]1NC(=O)[C@@H]2CSSC[C@H](NC(=O)[C@@H](NC(=O)CN)CSSC[C@@H](C(=O)O)NC(=O)[C@H](CC(C)C)NC(=O)[C@H](CC(=O)O)NC(=O)[C@@H]3CCCN3C(=O)[C@H](CC(N)=O)NC(=O)[C@H](CC(N)=O)NC(=O)[C@H](C)NC1=O)C(=O)N[C@@H](CO)C(=O)N[C@@H](CC(N)=O)C(=O)N1CCC[C@H]1C(=O)N1CCC[C@H]1C(=O)N2 [Recombinant [R5N]TxIA] (H-GCCSNPPCIANNPDLC-OH; disulfide 2-16, 3-8) |  | 1830 |  | −1.36 | but not when an asparagine residue was introduced in this position | 
CC[C@H](C)[C@@H]1NC(=O)[C@@H]2CSSC[C@H](NC(=O)[C@@H](NC(=O)CN)CSSC[C@@H](C(=O)O)NC(=O)[C@H](CC(C)C)NC(=O)[C@H](CC(=O)O)NC(=O)[C@@H]3CCCN3C(=O)[C@H](CC(N)=O)NC(=O)[C@H](CC(N)=O)NC(=O)[C@H](C)NC1=O)C(=O)N[C@@H](CO)C(=O)N[C@@H](CC(=O)O)C(=O)N1CCC[C@H]1C(=O)N1CCC[C@H]1C(=O)N2 [Recombinant [R5D]TxIA] (H-GCCSDPPCIANNPDLC-OH; disulfide 2-16, 3-8) |  | 3540 | 2910 | −1.38 | almost completely reversed; also recorded: could rescue the activity at the α7 nAChR at a similar level to that of globular TxIA | −1.24
CC[C@H](C)[C@@H]1NC(=O)[C@@H]2CSSC[C@H](NC(=O)[C@@H](NC(=O)CN)CSSC[C@@H](C(=O)O)NC(=O)[C@H](CC(C)C)NC(=O)[C@H](CC(=O)O)NC(=O)[C@@H]3CCCN3C(=O)[C@H](CC(N)=O)NC(=O)[C@H](CC(N)=O)NC(=O)[C@H](C)NC1=O)C(=O)N[C@@H](CO)C(=O)N[C@@H](CCCNC(=N)N)C(=O)N1CCC[C@H]1C(=O)N1CCC[C@H]1C(=O)N2 [Recombinant TxIA] |  |  |  | −1.54 |  | 
